Laboratory results published in patent US9622498B2 (Vera Roasting Company, Inc., priority 2015, dated 2017).

Key:
[1] = Solubility of resveratrol in glycerin tested using UV/vis spectroscopy; format: physicochemical
Description: This low solubility inhibits adequate, reproducible absorption from the gastrointestinal tract. For this reason, poor solubility is closely associated with low bioavailability. […] Glycerin engages in H-bonding interactions at both ends of the molecule, forming a 2:1 H-bonding complex.

[2] = cited from earlier work

Oc1ccc(C=Cc2cc(O)cc(O)c2)cc1 [resveratrol, 3,5,4′-trihydroxystilbene]
times more soluble in glycerin than in water ([1]; glycerin versus water): at least 48 times | solubility of resveratrol in glycerin ([1]; glycerin, UV/vis spectroscopy): ≥ 144 mg/100 mL | solubility of resveratrol in water [2]: approximately 3 mg/100 mL
